Measurements from patent US8614246B2, “Indole derivatives for treating neurodegenerative diseases” (Centre National de la Recherche Scientifique (CNRS), priority 2009, dated 2013).

Columns and labels:
[1] = test system: dopaminergic neurons (TH+ neurons) in primary cultures of ventral mesencephalon; test: Neuroprotection: counting of remaining TH+ neurons in primary cultures of ventral mesencephalon (spontaneous death of dopaminergic neurons); assay type: cell-based; details: Product 10 nM, 8 days culture, rat embryo ventral mesencephalon; untreated control = 100
Procedure: (§1) Dissection. Dissection consists of extracting embryos from the uterus of a rat after fifteen days of gestation. The brain of each embryo is then dissected under magnifying binoculars in order to extract the ventral mesencephalus.
(§2) Seeding. Mesencephalons are grouped in a flask containing 2 mL of L15 medium and then mechanically dissociated (30 repeat operations), 5 mL of L15 medium are added. The suspension is allowed to stand for 8 minutes. The 5 mL float is then recovered in a new flask and the cells are dissociated again (30 repeat operations). 5 mL of L15 is added again and the suspension is left to stand for 8 minutes. The 5 mL float is added to the previous float. The cells thus extracted are then centrifuged for 5 minutes at 1000 rpm^−1. The cell sediment is dissolved in a Neurobasal medium supplemented with 1% of B27, 1% of glutamine and 1% of a mixture of penicillin and streptomycin. The cells are then seeded at an appropriate dilution (0.6 embryos per well in 24-well plates and 0.4 per well in 48-well plates). The cultures are incubated at 37° C. in a wet atmosphere enriched with 5% CO2 in 24-well or 48-well plates.
(§3) Treatment. After 24 hours, two-thirds of the medium in each well is replaced by a new medium enriched with the product to be tested at the appropriate dilution. The medium is replaced in the same way after 4 days of culture.
(§4) Immunohistochemistry. After 8 days culture, the cells are fixed by a solution of 4% formaldehyde and then washed three times with PBS. The cells are then submitted to anti-tyrosine hydroxylase (TH) immunohistochemistry, developed by a secondary antibody coupled to a fluorophore emitting in the red (Cy3).
(§5) Analyses. Neuroprotection is evaluated by counting positive TH neurons with 10 fields per well directly under an inverted fluorescence microscope, reported as a percentage of the untreated control. Experiments are done on three wells per condition. Three independent experiments are done under these conditions. The total neuritic length per cell is calculated using Explora Nova's Neurite Outgrowth software on 60 to 100 neurons photographed independently per condition.
(§6) Primary cultures of ventral mesencephalon of rat embryos after 15.5 days of gestation under conditions causing spontaneous death of dopaminergic neurons, are maintained in the presence or absence of the compounds to be tested for 8 days. After fixing, the cultures are submitted to immunocytochemistry directed against tyrosine hydroxylase, a specific marker of dopaminergic neurons.
The neuroprotective potential of each compound is then estimated by counting the number of remaining neurons (TH^+ neurons) under a fluorescence microscope. The results for the different treatments are expressed as a percentage of the number of neurons remaining relative to untreated cultures (Control).
(§7) All experiments were done by comparison with a positive control, dibutyryl-AMP cyclic (db-AMPc) (Mourlevat S. et al. Mol. Pharmacol. 2003, 64 (3), 578-586).

[2] = test system: dopaminergic neurons (TH+ neurons) in primary cultures of ventral mesencephalon; test: Neuritogenesis: total neuritic length per dopaminergic neuron in primary cultures of ventral mesencephalon; assay type: cell-based; details: Product 10 nM, 8 days culture, rat embryo ventral mesencephalon; untreated control = 100
Procedure: as §1, §2, §3, §4, §5, §6
Neuritogenesis is quantified by measuring the total neuritic length per dopaminergic neuron (neuritic length/TH^+ neuron) using an image analyser on a minimum of sixty photographed neurons per condition (10-30% of all dopaminergic neurons).
as §7

[3] = Test with ABTS (anti-oxidant capacity, hydroxyl radicals generated by Fenton's reaction); assay type: biochemical; details: 30 minutes at ambient temperature, range 10 nM to 1 mM, read-out: IC50 ± SEM (concentration at which 50% of hydroxyl radicals have been reduced) (converted)
Description: ABTS or 2,2′-azino-bis-(3-ethylbenzthiazoline-6-sulfonic) acid is a coloured indicator of the presence of hydroxyl radicals in solution. The attack of a hydroxyl radical on ABTS generates the formation of an ATBS^+. cation radical (Equation 1). This coloured entity makes the absorbance (Abs) of the solution equal to 450 nm. ABTS+HO. ? ABTS^+. +HO^− Equation 1
During the test, hydroxyl radicals are generated by Fenton's reaction in the presence of iron and hydrogen peroxide (Equation 2) H2O2+Fe^2+ ? HO. +HO^−+Fe^3+ Equation 2
When a radical trap or antioxidant is present in solution, competition with ABTS is set up for reduction of hydroxyl radicals, which reduces the absorbance (Abs) at 450 nm.
The percentage of hydroxyl radicals converted into hydroxyl ions (% conversion) by the compound of interest may be calculated using Formula 1: […]
The anti-oxidant capacity of a compound may then be expressed in the form of IC50 that reflects the concentration at which 50% of hydroxyl radicals have been reduced by the tested compound.
Thus, the compounds to be tested and Trolox® were solubilised in ethanol so as to obtain solutions at 1 mM. We used cascade dilutions to obtain a concentration range varying from 1 mM to 10 nM. 90 μL of a 1:1 water-ethanol mixture was then added onto an ELISA 96-well plate, followed by 15 μL of an aqueous solution of ABTS at 1 mM, 15 μL of an aqueous solution of Fe2SO4 at 0.5 mM, 15 μL of each compound to be tested at different concentrations, and then 15 μl of an aqueous solution of hydrogen peroxide at 100 mM. The mixtures thus obtained were stirred at ambient temperature sheltered from air for 30 minutes, and the value of the absorbance at […] was then measured. The capacity of each compound to reduce hydroxyl radicals is determined by the reduction in absorbance at 450 nm, the control solution being composed of pure ethanol. Therefore, the ABTS test was made in comparison with Trolox®. The same ranges from 10 nm to 1 mM of indoles 1a, 1c, 1g, 1i, 2a, 4c, 2g, 2h and 2i were tested.

SMILES: CCCCCCCCCCCCCCCCNCCc1c[nH]c2ccccc12 [Compound 2c, N-(2-(1H-indol-3-yl)ethyl)hexadecan-1-amine]
- TH+ neurons, % relative to control ± SEM [1]: 131.9 ± 4.7 %
- Neuritic length/TH+ neuron, % relative to control ± SEM [2]: 197.0 ± 14.0 %
- IC50 [3]: 620 µM
